Results published in patent US20260070917A1, “CYCLIN DEPENDENT KINASE DEGRADERS AND METHODS OF USE THEREOF” (Differentiated Therapeutics Inc, priority 2023, published 2026).

Assays:
CDK2 = target: T1, CDK2 (Homo sapiens, UniProt P24941); assay: HiBit Assay Protocol for CDK2 (HIBIT protein quantification, degradation); format: cell-based; settings: HEK293-CDK2-Hibit cells, compound treatment for 6 hours; for DC50: ABS DC50
T1 construct: host or cells: HEK293-CDK2-Hibit
Description: HiBit Assay Protocol for CDK2
• 1. The culture medium for HEK293-CDK2-Hibit cells was prepared using DMEM with 10% FBS. • 2. Cells were cultivated in T-75 flasks in a cell culture incubator set at 37° C., 5% CO2, 95% relative humidity. Cells were allowed to reach 80-90% confluence before detaching and splitting. • 3. Cultivated cells were rinsed in T-75 flasks with 5 mL PBS. Aspirate off Added was 1.5 mL trypsin, and the cells were incubated at 37° C. for approximately 5 minutes or until the cells detached and floated. • 4. Trypsin was inactivated by adding excess serum containing medium. • 5. Cells were harvested from flask into cell culture medium and then the cell number was counted. HEK293-CDK2-Hibit cells were seeded into 384-well plate (cell density: 1.6×10^5 cells/well/50 uL medium) in DMEM medium according to the plate map below and incubated overnight at 37° C. and 5% CO2. • Note: Cell Cultured Medium: 90% DMEM+10% FBS+1% Penicillin-Streptomycin Liquid
(§1) • 1. Test compounds were dissolved at 10 mM DMS stock solution. 45 uL of stock solution was transferred to a 384 pp-plate. A 3-fold, 10-point dilution was performed via transferring 15 uL compound into 30 uL DMSO by using TECAN liquid handler. • 2. The plates were spinned at room temperature at 1,000 RPM for 1 minute. • 3. 50 nL of diluted compound was transferred from compound source plate into the cell plate by Echo. • 4. After compound treatment for 6 hours, the plate was removed from incubators and equilibrated at room temperature for 15 minutes. The HiBit reagent was prepared, consisting of the following ratios: 10 mL of Nano-Glo®-HiBiT Lytic Buffer, 200 μL of Nano-Glo®-HiBiT Lytic Substrate and 100 uL of LgBiT Protein, mixed thoroughly. 20 μL of HiBit reagent was added into each well and the plates were spinned at room temperature at 1,000 RPM for 1 minute to be detected. Then the plates were shaken at 600 RPM at room temperature for 20 minutes, and read by EnVision. • 5. The inhibition activity was calculated following the formula below:
(§2) [formula] • Note: Where HC is obtained from cells treated with […] only; LC is obtained from culture medium only. • 6. ABS DC50 was calculated by fitting the Curve using Xlfit (v5.3.1.3), equation 201: […]

CCNE1 = target: T2, CCNE1 (Homo sapiens, UniProt P24864); assay: HiBit Assay Protocol for CCNE1 (HIBIT protein quantification, degradation); format: cell-based; settings: HEK293-CCNE1-Hibit cells, compound treatment for 6 hours
T2 construct: host or cells: HEK293-CCNE1-Hibit
T2 sequence (P24864 whole entry): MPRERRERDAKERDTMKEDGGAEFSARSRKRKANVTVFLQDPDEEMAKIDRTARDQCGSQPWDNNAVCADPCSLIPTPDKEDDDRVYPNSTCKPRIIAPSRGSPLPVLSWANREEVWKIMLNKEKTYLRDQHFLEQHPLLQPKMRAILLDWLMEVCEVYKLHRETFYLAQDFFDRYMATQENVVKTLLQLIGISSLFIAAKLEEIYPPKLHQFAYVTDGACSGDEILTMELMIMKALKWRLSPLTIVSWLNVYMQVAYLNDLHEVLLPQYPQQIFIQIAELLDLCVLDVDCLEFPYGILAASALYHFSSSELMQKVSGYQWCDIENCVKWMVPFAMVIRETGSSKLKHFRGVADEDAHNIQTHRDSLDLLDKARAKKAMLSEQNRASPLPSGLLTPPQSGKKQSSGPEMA
Description: HiBit Assay Protocol for CCNE1
• 1. The culture medium for HEK293-CCNE1-Hibit cell was prepared using EMEM with […]. • 2. Cells were cultivated in T-75 flasks in a cell culture incubator set at 37° C., 5% CO2, 95% relative humidity. Cells were allowed to reach 80-90% confluence before detaching and splitting. • 3. Cultivated cells were rinsed in T-75 flasks with 5 mL PBS. Aspirate off Added was 1.5 mL trypsin, and the cells were incubated at 37° C. for approximately 5 minutes or until the cells detached and floated. • 4. Trypsin was inactivated by adding excess serum containing medium. • 5. Cells were harvested from flask into cell culture medium and then the cell number was counted. HEK293-CCNE1-Hibit cell were seeded into 384-well plate (cell density: 1.6×10^5 cells/well/50 uL medium) in EMEM medium according to the plate map below and incubated overnight at 37° C. and […]. • Note: Cell Cultured Medium: 90% EMEM+10% FBS+1% Penicillin-Streptomycin Liquid
as §1, with “mM DMSO” for “mM DMS”, “45 μL” for “45 uL”, “100 μL” for “100 uL”, “Protein, mix” for “Protein, mixed”
as §2

Row | Structure (SMILES) | CDK2 HIBIT Protein Quantification Maximum (CDK2) | DC50 (CDK2) | CCNE1 HIBIT Protein Quantification Maximum (CCNE1)
1 | CC1CCCC1N1C(=O)C2(CC2)c2cnc(NC3CCN(S(=O)(=O)C4CCN(C(=O)CCCCCc5cccc6c5n(C)c(=O)n6C5CCC(=O)NC5=O)C4)CC3)nc21 (centres unmarked) [Compound 1, 3-{3-Methyl-4-[6-(3-{4-[7′-(2-methylcyclopentyl)-6′-oxospiro[cyclopropane-1,5′-pyrrolo[2,3-d]pyrimidin]-2′-ylamino]piperidin-1-ylsulfonyl}pyrrolidin-1-yl)-6-oxohexyl]-2-oxo-1,3-benzodiazol-1-yl}piperidine-2,6-dione] | 70.2% | 16 nM | 30.9%
2 | CC1CCCC1N1C(=O)C2(CC2)c2cnc(NC3CCN(S(=O)(=O)N4CCC5(CCCN5C(=O)CCCCCCCc5cccc6c5n(C)c(=O)n6C5CCC(=O)NC5=O)C4)CC3)nc21 (centres unmarked) [Compound 2, 3-{3-Methyl-4-[8-(7-{4-[7′-(2-methylcyclopentyl)-6′-oxospiro[cyclopropane-1,5′-pyrrolo[2,3-d]pyrimidin]-2′-ylamino]piperidin-1-ylsulfonyl}-1,7-diazaspiro[4.4]nonan-1-yl)-8-oxooctyl]-2-oxo-1,3-benzodiazol-1-yl}piperidine-2,6-dione] | 45.7% |  | 41.1%
3 | CC1CCCC1N1C(=O)C2(CC2)c2cnc(NC3CCN(S(=O)(=O)N4CC5(CCCN(C(=O)CCCCCCCc6cccc7c6n(C)c(=O)n7C6CCC(=O)NC6=O)C5)C4)CC3)nc21 (centres unmarked) [Compound 3] | 34.6% |  | 19.4%
4 | CC1CCCC1N1C(=O)C2(CC2)c2cnc(NC3CCN(S(=O)(=O)N4CC5(CCN(C(=O)CCCCCCCc6cccc7c6n(C)c(=O)n7C6CCC(=O)NC6=O)CC5)C4)CC3)nc21 (centres unmarked) [Compound 4] | 56.5% | 6.7 nM | 21.2%
5 | CC1CCCC1N1C(=O)C2(CC2)c2cnc(NC3CCN(S(=O)(=O)N4CC5CN(C(=O)CCCCCCCc6cccc7c6n(C)c(=O)n7C6CCC(=O)NC6=O)CC54)CC3)nc21 (centres unmarked) [Compound 5] | 24.9% |  | 21.9%
6 | CC1CCCC1N1C(=O)C2(CC2)c2cnc(NC3CCN(S(=O)(=O)C4CCN(C(=O)CCCCCCCc5cccc6c5n(C)c(=O)n6C5CCC(=O)NC5=O)C4)CC3)nc21 (centres unmarked) [Compound 6] | 66.2% | 14.6 nM | 30%
7 | CC1CCCC1N1C(=O)C2(CC2)c2cnc(NC3CCN(S(=O)(=O)N4CCN(C(=O)CCCc5ccc6c(c5)n(C)c(=O)n6C5CCC(=O)NC5=O)CC4)CC3)nc21 (centres unmarked) [Compound 7] | 37.9% |  | 21.2%
8 | CC1CCCC1N1C(=O)C2(CC2)c2cnc(NC3CCN(S(=O)(=O)N4CCN(C(=O)CCCCc5cccc6c5n(C)c(=O)n6C5CCC(=O)NC5=O)CC4)CC3)nc21 (centres unmarked) [Compound 8] | 59.2% | 8.8 nM | 24.7%
9 | CC1CCCC1N1C(=O)C2(CC2)c2cnc(NC3CCN(S(=O)(=O)N4CC5(CCN(C(=O)CCCCc6cccc7c6n(C)c(=O)n7C6CCC(=O)NC6=O)CC5)C4)CC3)nc21 (centres unmarked) [Compound 9] | 48.4% |  | 
10 | CC1CCCC1N1C(=O)C2(CC2)c2cnc(NC3CCN(S(=O)(=O)N4CCC5(CCN(C(=O)CCCCc6cccc7c6n(C)c(=O)n7C6CCC(=O)NC6=O)C5)C4)CC3)nc21 (centres unmarked) [Compound 10] | 38.9% |  | 
11 | CC1CCCC1N1C(=O)C2(CC2)c2cnc(NC3CCN(S(=O)(=O)C4CCN(C(=O)CCCCc5cccc6c5n(C)c(=O)n6C5CCC(=O)NC5=O)C4)CC3)nc21 (centres unmarked) [Compound 11] | 49.5% |  | 23.6%
12 | CC1CCCC1N1C(=O)C2(CC2)c2cnc(NC3CCN(S(=O)(=O)N4CCN(C(=O)CCCCc5ccc6c(c5)n(C)c(=O)n6C5CCC(=O)NC5=O)CC4)CC3)nc21 (centres unmarked) [Compound 12] | 34.6% |  | 16.9%
13 | CC1CCCC1N1C(=O)C2(CC2)c2cnc(NC3CCN(S(=O)(=O)N4CCC(CN5CCC(c6cccc7c6n(C)c(=O)n7C6CCC(=O)NC6=O)CC5)CC4)CC3)nc21 (centres unmarked) [Compound 14, 3-(3-Methyl-4-{1-[(1-{4-[7′-(2-methylcyclopentyl)-6′-oxospiro[cyclopropane-1,5′-pyrrolo[2,3-d]pyrimidin]-2′-ylamino]piperidin-1-ylsulfonyl}piperidin-4-yl)methyl]piperidin-4-yl}-2-oxo-1,3-benzodiazol-1-yl)piperidine-2,6-dione] | 57.4% | 4.56 nM | 37.7%
14 | Cn1nc(N2CCC(=O)NC2=O)c2ccc(C3CCN(Cc4cccc(S(=O)(=O)N5CCC(Nc6ncc7c(n6)N([C@@H]6CCC[C@@H](O)C6)C(=O)C76CCC6)CC5)c4)CC3)cc21 [Compound 174, 1-[6-(1-{[3-(4-{7′-[(1R,3R)-3-Hydroxycyclohexyl]-6′-oxospiro[cyclobutane-1,5′-pyrrolo[2,3-d]pyrimidin]-2′-ylamino}piperidin-1-ylsulfonyl)phenyl]methyl}piperidin-4-yl)-1-methylindazol-3-yl]-1,3-diazinane-2,4-dione] | 82% | 3.58 nM | 47%
15 | CC1CN(C(C)c2cccc(S(=O)(=O)N3CC[C@H](Nc4ncc5c(n4)N([C@@H]4CCC[C@@H](O)C4)C(=O)C54CC4)[C@H](F)C3)c2)CCC1c1ccc2c(N3CCC(=O)NC3=O)nn(C)c2c1 (some centres unmarked) [Compound 189] | 88% | 2.62 nM | 47%
16 | CC(C)C1CC(c2ccc3c(N4CCC(=O)NC4=O)nn(C)c3c2)CCN1C(C)c1cccc(S(=O)(=O)N2CC[C@H](Nc3ncc4c(n3)N([C@@H]3CCC[C@@H](O)C3)C(=O)C43CC3)[C@H](F)C2)c1 (some centres unmarked) [Compound 190] | 70% | 13.6 nM | 27%
17 | C[C@H](c1cccc(S(=O)(=O)N2CC[C@H](Nc3ncc4c(n3)N([C@@H]3CCC[C@@H](O)C3)C(=O)C43CC3)[C@H](F)C2)c1)N1CCN(c2ccc3c(N4CCC(=O)NC4=O)nn(C)c3c2)C[C@@H]1C [Compound 193] | 85% | 10.3 nM | 48%
18 | C[C@H]1CN(c2ccc3c(N4CCC(=O)NC4=O)nn(C)c3c2)CCN1[C@@H](C)c1cccc(S(=O)(=O)N2CC[C@H](Nc3ncc4c(n3)N([C@@H]3CCC[C@@H](O)C3)C(=O)C43CC3)[C@H](F)C2)c1 [Compound 194] | 94% | 3.86 nM | 42%
19 | C[C@H](c1cc(S(=O)(=O)N2CC[C@H](Nc3ncc4c(n3)N([C@@H]3CCC[C@@H](O)C3)C(=O)C43CC3)[C@H](F)C2)ccc1F)N1CCN(c2ccc3c(N4CCC(=O)NC4=O)nn(C)c3c2)CC1 [Compound 210] | 91% | 4.7 nM | 47%
